From US10526316B2, “Quinoxaline and pyridopyrazine derivatives as PI3Kβ inhibitors” (Janssen Pharmaceutica NV, priority 2015, dated 2020) come the findings set out here.

One assay deals with T1, PI3Kβ (Homo sapiens, UniProt P42338).
T1 construct: purchased DiscoveRx Corporation, San Diego (contract service, KINOMEscan)
As to the kind of experiment: Enzyme binding assay (KINOMEscan, DiscoveRx). The note with it: PIK3Cβ_h, read-out: Kd PIK3Cβ_h. The procedure, abridged: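 Using the KINOMEscan format, the enzyme binding affinity of each compound was determined. Each value is the inhibitor binding constant, Kd (nM).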

Another assay has as its target T2, PI3Kδ (Homo sapiens, UniProt O00329).
T2 construct: purchased DiscoveRx Corporation, San Diego (contract service, KINOMEscan)
T2 sequence (O00329 1-1044): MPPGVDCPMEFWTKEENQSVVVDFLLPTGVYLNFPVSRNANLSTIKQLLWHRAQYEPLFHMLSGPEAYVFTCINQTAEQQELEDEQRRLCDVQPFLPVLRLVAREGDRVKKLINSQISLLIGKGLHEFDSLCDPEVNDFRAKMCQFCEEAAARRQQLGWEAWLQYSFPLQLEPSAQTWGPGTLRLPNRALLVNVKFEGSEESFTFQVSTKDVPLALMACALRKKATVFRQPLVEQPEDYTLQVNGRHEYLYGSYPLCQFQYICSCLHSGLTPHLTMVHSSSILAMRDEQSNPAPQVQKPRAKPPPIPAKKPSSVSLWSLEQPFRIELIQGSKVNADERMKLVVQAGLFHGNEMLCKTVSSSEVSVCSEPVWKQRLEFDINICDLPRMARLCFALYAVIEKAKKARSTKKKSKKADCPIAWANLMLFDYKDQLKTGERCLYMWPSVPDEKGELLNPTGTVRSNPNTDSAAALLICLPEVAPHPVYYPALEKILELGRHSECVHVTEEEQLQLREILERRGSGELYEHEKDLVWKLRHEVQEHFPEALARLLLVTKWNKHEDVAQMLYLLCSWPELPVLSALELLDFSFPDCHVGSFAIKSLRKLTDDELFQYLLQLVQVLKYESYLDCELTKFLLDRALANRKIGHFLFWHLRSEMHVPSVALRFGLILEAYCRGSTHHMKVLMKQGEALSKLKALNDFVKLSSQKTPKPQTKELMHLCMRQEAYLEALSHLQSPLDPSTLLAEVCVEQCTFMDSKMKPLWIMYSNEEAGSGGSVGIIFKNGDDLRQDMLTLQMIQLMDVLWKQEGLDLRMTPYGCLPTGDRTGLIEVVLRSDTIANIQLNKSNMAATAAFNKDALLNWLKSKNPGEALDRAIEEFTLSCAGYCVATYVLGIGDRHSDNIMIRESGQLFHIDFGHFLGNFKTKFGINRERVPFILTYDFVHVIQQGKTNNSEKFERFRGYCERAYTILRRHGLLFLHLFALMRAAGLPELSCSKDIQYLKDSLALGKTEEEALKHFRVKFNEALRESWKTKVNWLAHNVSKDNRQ
The experiment in a line: Enzyme binding assay (KINOMEscan, DiscoveRx). To be noted: PIK3Cδ_h. Summed up:
(§1)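 Uses KINOMEscan technology to determine binding affinity toward the kinase enzymes.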

For assay [1], the target named is T3, kinase enzymes (Homo sapiens, UniProt P42336).
T3 construct: purchased DiscoveRx Corporation, San Diego (contract service, KINOMEscan)
As to the kind of experiment: Enzyme binding assay (KINOMEscan, DiscoveRx), further kinases of Table A. The note with it: PIK3Cα_h. Summed up:
as §1

The target of assay [2] is T4, kinase enzymes (Homo sapiens, UniProt P42345).
T4 construct: purchased DiscoveRx Corporation, San Diego (contract service, KINOMEscan)
The description is as above. The note with it: MTOR_h. Summed up:
as §1

Assay [3] deals with T5, kinase enzymes (Homo sapiens, UniProt P48736).
T5 construct: purchased DiscoveRx Corporation, San Diego (contract service, KINOMEscan)
The description is as above. To be noted: PIK3Cγ_h. Summed up: as §1

Assay [4] deals with Akt phosphorylated at Ser473 in PC-3 cells. The experiment in a line: Cellular assay: phosphorylation of Akt at Ser473 in PC-3 cells (MSD ELISA). The note with it: PC-3 cells, 60 min compound incubation, MSD ELISA, read-out: IC50 pAkt_S473. It counts as cell-based. Summed up:
(§2)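 Electrochemiluminescent sandwich ELISA read-out: phospho-specific capture (Ser473 or Thr308), Sulfo-tag anti-total Akt detection, signal proportional to phospho-Akt. Cells treated 60 min at 37° C with compound, DMSO 0.3%. IC50 fitted from five concentrations.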
For orientation: In an ELISA, binding on a coated surface is turned into a signal by an enzyme label.

Assay [5] deals with Akt phosphorylated at Thr308 in PC-3 cells. The experiment in a line: Cellular assay: phosphorylation of Akt at Thr308 in PC-3 cells (MSD ELISA). It counts as cell-based. To be noted: PC-3 cells, 60 min compound incubation, MSD ELISA, read-out: IC50 pAkt_Thr308. Summed up: as §2

The term Kd denotes the concentration at which binding is half-saturated. A word on the IC50: it is the concentration at which inhibition is half-maximal.

Read-outs that look alike come from different tables or passages of the source.

T5 sequence (P48736 whole entry): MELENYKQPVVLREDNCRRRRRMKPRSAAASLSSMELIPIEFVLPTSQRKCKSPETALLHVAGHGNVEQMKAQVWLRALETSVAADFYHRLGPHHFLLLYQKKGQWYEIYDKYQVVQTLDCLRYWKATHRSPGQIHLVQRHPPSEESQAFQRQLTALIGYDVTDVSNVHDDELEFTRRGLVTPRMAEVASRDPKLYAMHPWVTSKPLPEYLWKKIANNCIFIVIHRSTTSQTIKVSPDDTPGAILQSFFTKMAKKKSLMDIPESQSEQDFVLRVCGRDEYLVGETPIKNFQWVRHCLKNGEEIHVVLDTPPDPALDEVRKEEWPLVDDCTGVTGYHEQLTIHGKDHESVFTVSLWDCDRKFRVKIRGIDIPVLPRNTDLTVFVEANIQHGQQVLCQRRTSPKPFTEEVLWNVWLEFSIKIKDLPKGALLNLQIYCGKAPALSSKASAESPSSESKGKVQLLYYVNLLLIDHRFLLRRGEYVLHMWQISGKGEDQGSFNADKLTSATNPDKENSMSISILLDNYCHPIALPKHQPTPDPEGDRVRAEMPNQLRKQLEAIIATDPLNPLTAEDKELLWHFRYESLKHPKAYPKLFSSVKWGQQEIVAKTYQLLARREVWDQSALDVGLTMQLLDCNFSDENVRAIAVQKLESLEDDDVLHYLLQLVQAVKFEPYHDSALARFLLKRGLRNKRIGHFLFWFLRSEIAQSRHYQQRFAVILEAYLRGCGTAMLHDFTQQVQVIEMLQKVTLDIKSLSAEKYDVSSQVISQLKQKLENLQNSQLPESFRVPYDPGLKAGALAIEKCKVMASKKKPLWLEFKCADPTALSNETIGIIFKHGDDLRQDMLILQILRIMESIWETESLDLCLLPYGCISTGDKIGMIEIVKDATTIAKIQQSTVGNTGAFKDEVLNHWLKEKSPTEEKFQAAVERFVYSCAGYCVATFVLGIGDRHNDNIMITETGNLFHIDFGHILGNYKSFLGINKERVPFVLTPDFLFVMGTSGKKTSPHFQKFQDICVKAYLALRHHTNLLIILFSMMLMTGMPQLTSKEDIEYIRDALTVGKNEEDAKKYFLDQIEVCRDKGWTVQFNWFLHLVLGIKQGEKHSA
T3 sequence (P42336 whole entry): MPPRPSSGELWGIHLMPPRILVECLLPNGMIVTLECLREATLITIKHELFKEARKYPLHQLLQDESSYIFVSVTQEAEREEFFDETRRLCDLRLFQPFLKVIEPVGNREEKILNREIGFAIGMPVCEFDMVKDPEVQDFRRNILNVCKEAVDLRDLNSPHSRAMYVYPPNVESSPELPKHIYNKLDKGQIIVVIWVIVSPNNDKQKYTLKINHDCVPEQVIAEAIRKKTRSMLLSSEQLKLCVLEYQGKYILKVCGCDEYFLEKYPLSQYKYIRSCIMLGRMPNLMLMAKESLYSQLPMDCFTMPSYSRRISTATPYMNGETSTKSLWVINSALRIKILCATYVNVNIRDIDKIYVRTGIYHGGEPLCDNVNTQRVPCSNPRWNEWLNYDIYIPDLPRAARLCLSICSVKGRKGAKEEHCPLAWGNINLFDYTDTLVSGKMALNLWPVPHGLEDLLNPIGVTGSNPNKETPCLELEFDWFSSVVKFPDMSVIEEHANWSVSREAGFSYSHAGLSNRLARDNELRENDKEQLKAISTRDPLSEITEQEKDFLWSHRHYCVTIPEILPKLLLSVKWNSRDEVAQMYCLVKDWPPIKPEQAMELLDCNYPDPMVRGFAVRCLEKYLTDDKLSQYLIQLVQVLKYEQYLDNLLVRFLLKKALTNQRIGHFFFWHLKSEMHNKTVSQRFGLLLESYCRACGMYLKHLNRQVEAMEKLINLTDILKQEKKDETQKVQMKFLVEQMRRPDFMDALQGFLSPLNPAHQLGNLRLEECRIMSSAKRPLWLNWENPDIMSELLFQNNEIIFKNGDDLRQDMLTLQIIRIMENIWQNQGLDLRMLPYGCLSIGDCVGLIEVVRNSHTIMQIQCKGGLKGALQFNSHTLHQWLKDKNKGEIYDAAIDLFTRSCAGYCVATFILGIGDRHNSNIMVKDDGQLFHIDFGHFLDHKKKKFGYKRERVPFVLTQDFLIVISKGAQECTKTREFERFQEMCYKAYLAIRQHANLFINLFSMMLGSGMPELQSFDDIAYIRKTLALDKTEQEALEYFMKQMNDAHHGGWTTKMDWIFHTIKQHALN
T1 sequence (P42338 whole entry): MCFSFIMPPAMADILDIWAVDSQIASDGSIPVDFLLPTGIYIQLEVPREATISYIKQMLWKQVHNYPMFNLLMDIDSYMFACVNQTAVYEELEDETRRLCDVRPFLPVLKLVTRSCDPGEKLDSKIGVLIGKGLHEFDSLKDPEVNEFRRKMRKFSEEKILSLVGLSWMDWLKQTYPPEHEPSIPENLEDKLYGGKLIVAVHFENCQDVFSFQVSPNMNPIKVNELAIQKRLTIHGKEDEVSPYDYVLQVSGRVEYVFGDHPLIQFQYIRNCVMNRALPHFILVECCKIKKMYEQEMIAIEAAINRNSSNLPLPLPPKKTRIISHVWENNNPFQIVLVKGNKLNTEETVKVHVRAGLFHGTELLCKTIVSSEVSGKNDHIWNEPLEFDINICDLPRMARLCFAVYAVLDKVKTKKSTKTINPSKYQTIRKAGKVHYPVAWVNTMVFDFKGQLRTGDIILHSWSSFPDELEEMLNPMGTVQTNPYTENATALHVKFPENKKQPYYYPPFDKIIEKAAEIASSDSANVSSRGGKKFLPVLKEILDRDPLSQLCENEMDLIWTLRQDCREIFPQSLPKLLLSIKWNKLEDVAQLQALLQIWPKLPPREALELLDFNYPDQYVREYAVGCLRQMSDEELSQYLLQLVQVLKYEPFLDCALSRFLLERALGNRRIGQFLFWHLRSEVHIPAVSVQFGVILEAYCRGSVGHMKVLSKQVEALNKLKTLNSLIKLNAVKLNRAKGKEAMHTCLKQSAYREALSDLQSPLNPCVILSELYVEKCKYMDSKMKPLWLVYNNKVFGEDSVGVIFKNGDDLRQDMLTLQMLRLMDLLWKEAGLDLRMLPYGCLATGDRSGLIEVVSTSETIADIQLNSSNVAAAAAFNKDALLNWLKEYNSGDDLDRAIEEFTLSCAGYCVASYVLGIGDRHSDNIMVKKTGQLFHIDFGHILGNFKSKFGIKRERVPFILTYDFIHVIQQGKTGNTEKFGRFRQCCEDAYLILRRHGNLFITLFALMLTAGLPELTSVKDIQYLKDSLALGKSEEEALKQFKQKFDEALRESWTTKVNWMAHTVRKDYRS

As for `CC(Nc1cc(F)cc(F)c1)c1cc(C(=O)NS(=O)(=O)C2CC2)cc2ncc(N3CCOCC3)nc12` (single isomer, unassigned) [Compound 219], the Kd was 1 nM at PI3Kβ; 275 nM at PI3Kδ; 0.093 µM on kinase enzymes [1]; 3.31 µM on kinase enzymes [2]; 0.955 µM at kinase enzymes [3]. In addition, the IC50 in assay [4] (Homo sapiens, PC-3, 1 h) is over 513 nM; in assay [5] (Homo sapiens, PC-3, 1 h) it was over 513 nM.

In the case of `C[C@@H]1CN(c2cnc3cc(C(=O)N(C)C)cc(C4CCCN4c4cccc(F)c4)c3n2)CCO1` (single isomer, unassigned) [Compound 30], the Kd on PI3Kβ was determined as 1 nM; at PI3Kδ, 18 nM; on kinase enzymes [1], 0.039 µM; on kinase enzymes [2] it was 21.9 µM; at kinase enzymes [3], 0.407 µM. Besides, the IC50 was 5 nM in assay [4] and about 4 nM in assay [5].

Take `CC(Nc1cc(F)cc(F)c1)c1cc(C(=O)N(C)C)cc2ncc(C3=CCOCC3)nc12` (single isomer, unassigned) [Compound 159]: the equilibrium dissociation constant (Kd) at PI3Kβ was 110 nM; on PI3Kδ, 23400 nM; at kinase enzymes [1] it was over 30.2 µM; on kinase enzymes [2], over 30.2 µM; at kinase enzymes [3] it was over 30.2 µM. The IC50 in assay [4] and in assay [5] was over 513 nM in each case.

For `CC(Nc1cc(F)cc(F)c1)c1cc(CNCC(F)(F)F)cc2ncc(N3CCOCC3)nc12` (single isomer, unassigned) [Compound 163], the dissociation constant Kd on PI3Kβ was 832 nM; on PI3Kδ, 16200 nM; at kinase enzymes [1], over 30.2 µM; on kinase enzymes [2] it was over 30.2 µM; at kinase enzymes [3] it was over 30.2 µM. Moreover, the IC50 in assay [4] and in assay [5] was over 513 nM each time.

For `Cc1ccc(NC(C)c2cc(C(=O)NCCO)cc3ncc(N4CCOCC4)nc23)cc1F` (single isomer, unassigned) [Compound 295a], the dissociation constant Kd is 288 nM at PI3Kβ; 6760 nM on PI3Kδ; 6.46 µM on kinase enzymes [1]; 14.5 µM on kinase enzymes [2]; over 30.2 µM on kinase enzymes [3]. Also, the half-inhibitory concentration (IC50) in assay [4] and in assay [5] was over 513 nM in each case.

For `CC(C)NCCN(C)C(=O)c1cc(NCc2cc(F)cc(F)c2)c2nc(N3CCOCC3)cnc2c1` [Compound 389], the Kd at PI3Kβ is 5 nM; at PI3Kδ it was 2190 nM; on kinase enzymes [1], 3.16 µM; on kinase enzymes [2], over 30.2 µM; at kinase enzymes [3] it was over 30.2 µM. For the same compound, the concentration for half-maximal inhibition (IC50) in assay [4] (Homo sapiens, PC-3, 1 h) came out at 39 nM; in assay [5] (Homo sapiens, PC-3, 1 h), 28 nM.

For the compound `CN1CCN(C(=O)c2cc(C3CCCN3c3cc(F)cc(F)c3)c3nc(N4CCOCC4)cnc3c2)CC1` (single isomer, unassigned) [Compound 58], the equilibrium dissociation constant (Kd) on PI3Kβ is 9 nM; on PI3Kδ it was 912 nM; on kinase enzymes [1], 2 µM; at kinase enzymes [2] it was over 30.2 µM; at kinase enzymes [3] it was 18.6 µM. Besides, the IC50 in assay [4] was over 513 nM; in assay [5] it was 295 nM.

`CC(Oc1cccc(F)c1F)c1cc(C(=O)N(C)C)cc2ncc(N3CCOCC3)nc12` (single isomer, unassigned) [Compound 74]: the Kd on PI3Kβ is 603 nM; on PI3Kδ it was 5620 nM; at kinase enzymes [1] it was 8.51 µM; on kinase enzymes [2], 23.4 µM; on kinase enzymes [3], over 30.2 µM. Further, the IC50 in assay [4] and in assay [5] was over 513 nM each time.

Regarding `CC(Nc1ccc(F)c(F)c1)c1cc(C(=O)NCCCO)cc2ncc(N3CCOCC3)nc12` (single isomer, unassigned) [Compound 280b], the Kd at PI3Kβ is 813 nM; on PI3Kδ, 21400 nM; at kinase enzymes [1], 22.4 µM; on kinase enzymes [2] it was over 30.2 µM; on kinase enzymes [3] it was 24.5 µM. Also, the IC50 in assay [4] and in assay [5] was over 513 nM in each case.

As for `CNCCOCCN(C)C(=O)c1cc(C(C)Nc2ccc(F)c(F)c2)c2nc(N3CCOCC3)cnc2c1` (single isomer, unassigned) [Compound 345b], the equilibrium dissociation constant (Kd) is 724 nM at PI3Kβ; 22900 nM on PI3Kδ; over 30.2 µM on kinase enzymes [1]; over 30.2 µM on kinase enzymes [2]; over 30.2 µM on kinase enzymes [3]. Moreover, the half-maximal inhibitory concentration (IC50) in assay [4] and in assay [5] was over 513 nM each time.

As to `CC(Oc1cccc(F)c1F)c1cc(C(=O)N(C)C)cc2ncc(N3CCOCC3)nc12` (single isomer, unassigned) [Compound 73], the equilibrium dissociation constant (Kd) was 9 nM on PI3Kβ; 282 nM at PI3Kδ; 2.04 µM on kinase enzymes [1]; over 30.2 µM at kinase enzymes [2]; 19.5 µM on kinase enzymes [3]. Besides, the concentration for half-maximal inhibition (IC50) in assay [4] (Homo sapiens, PC-3, 1 h) is over 513 nM; in assay [5] (Homo sapiens, PC-3, 1 h), 331 nM.

For the compound `CC1CN(c2cnc3cc(C(=O)N(C)C)cc(C4CCCN4c4cc(F)cc(F)c4)c3n2)CCO1` (stereo not drawn) [Compound 36], the dissociation constant Kd on PI3Kβ is 2 nM; at PI3Kδ it was 107 nM; on kinase enzymes [1] it was 0.224 µM; at kinase enzymes [2] it was 15.8 µM; on kinase enzymes [3], 1.59 µM. For the same compound, the half-maximal inhibitory concentration (IC50) amounted to 10 nM in assay [4] (Homo sapiens, PC-3, 1 h) and 5 nM in assay [5] (Homo sapiens, PC-3, 1 h).

For the compound `CN[C@H]1CCN(C(=O)c2cc(C(C)Oc3cc(F)c(F)c(F)c3)c3nc(N4CCOCC4)cnc3c2)C1` (single isomer, unassigned) [Compound 405b], the dissociation constant (Kd) on PI3Kβ came out at 1 nM; on PI3Kδ it was 219 nM; on kinase enzymes [1], 5.01 µM; on kinase enzymes [2], 20.9 µM; at kinase enzymes [3] it was 4.68 µM. The half-maximal inhibitory concentration (IC50) in assay [4] was 44 nM; in assay [5] it was 33 nM.

Turning to `CC(Nc1cccc(F)c1)c1cc(C(=O)N(C)C)cc2ncc(N3CCOCC3)nc12` (stereo not drawn) [Compound 85], the dissociation constant (Kd) was determined as 0.3 nM at PI3Kβ; 41 nM on PI3Kδ; 0.257 µM on kinase enzymes [1]; 0.562 µM at kinase enzymes [2]; 1.66 µM at kinase enzymes [3]. For the same compound, the IC50 was determined as 48 nM in assay [4] (Homo sapiens, PC-3, 1 h) and 78 nM in assay [5] (Homo sapiens, PC-3, 1 h).

For `CNCCNC(=O)c1cc(C(C)Nc2cccc(F)c2)c2nc(N3CCOCC3)cnc2c1` (single isomer, unassigned) [Compound 138], the Kd amounted to 0.1 nM at PI3Kβ; 56 nM on PI3Kδ; 0.398 µM at kinase enzymes [1]; 30.9 µM at kinase enzymes [2]; 2.15 µM at kinase enzymes [3]. In addition, the figures for the half-inhibitory concentration (IC50) in assay [4] and in assay [5] were 3 nM and 2 nM, respectively.

For the compound `CC(Nc1cc(F)c(F)c(F)c1)c1cc(C(=O)N(C)C2CCNC2)cc2ncc(N3CCOCC3)nc12` (stereo not drawn) [Compound 296], the equilibrium dissociation constant (Kd) is 1 nM at PI3Kβ; 166 nM on PI3Kδ; 2.95 µM on kinase enzymes [1]; over 30.2 µM on kinase enzymes [2]; 6.46 µM at kinase enzymes [3]. For the same compound, the IC50 in assay [4] (Homo sapiens, PC-3, 1 h) turned out to be 42 nM; in assay [5] (Homo sapiens, PC-3, 1 h), 14 nM.

For the compound `CC(Oc1cccc(F)c1)c1cc(CO)cc2ncc(N3CCOCC3)nc12` (single isomer, unassigned) [Compound 89], the Kd on PI3Kβ worked out at 832 nM; on PI3Kδ, 11700 nM; on kinase enzymes [1], 7.24 µM; at kinase enzymes [2], 13.5 µM; on kinase enzymes [3], 9.55 µM. The 50% inhibitory concentration (IC50) in assay [4] and in assay [5] was over 513 nM throughout.

As for `CC(Nc1ccc(F)c(F)c1)c1cc(C(=O)N2CCN3CCC[C@@H]3C2)cc2ncc(N3CCOCC3)nc12` (single isomer, unassigned) [Compound 347b], the Kd at PI3Kβ was 2 nM; at PI3Kδ, 355 nM; at kinase enzymes [1], 3.89 µM; on kinase enzymes [2] it was over 30.2 µM; on kinase enzymes [3] it was 25.7 µM. Besides, the IC50 in assay [4] was found to be 85 nM; in assay [5] it was 60 nM.
